Residues, ends and D or L forms follow the SMILES beside them. *: point of attachment. DAMPA = CN(Cc1cnc2nc(N)nc(N)c2n1)c1ccc(C(=O)*)cc1
Tests used:
[1] = test system: MDA-MB-231; assay: Drug uptake in human MDA-MB-231 cells at 1 to 10 uM preincubated for 90 mins followed by compound wash out and subsequent trypsin addition for 10 mins by 5 (6)-carboxy-fluorescein based flow cytometric analysis; type: ADME, cell-based; details: mda-mb-231, 10 min
[2] = test system: MDA-MB-231; assay: Cytostatic activity against human MDA-MB-231 cells preincubated for 3 hrs followed by serum treatment for 72 hrs measured on day 4 by MTT assay; type: functional, cell-based
[3] = test system: MCF7; assay: Cytostatic activity against human MCF7 cells preincubated for 3 hrs followed by serum treatment for 72 hrs measured on day 4 by MTT assay; type: functional, cell-based
[4] = test system: MCF7; assay: Drug uptake in human MCF7 cells at 1 uM preincubated for 90 mins followed by compound wash out and subsequent trypsin addition for 10 mins by 5 (6)-carboxy-fluorescein based flow cytometric analysis; type: ADME, cell-based; details: mcf7, 10 min
[5] = test system: MCF7; assay: Drug uptake in human MCF7 cells at 5 uM preincubated for 90 mins followed by compound wash out and subsequent trypsin addition for 10 mins by 5 (6)-carboxy-fluorescein based flow cytometric analysis; type: ADME, cell-based; details: mcf7, 10 min
[6] = test system: MCF7; assay: Drug uptake in human MCF7 cells at 10 uM preincubated for 90 mins followed by compound wash out and subsequent trypsin addition for 10 mins by 5 (6)-carboxy-fluorescein based flow cytometric analysis; type: ADME, cell-based; details: mcf7, 10 min
[7] = test system: MCF7; assay: Drug uptake in human MCF7 cells at 1 to 10 uM preincubated for 90 mins followed by compound wash out and subsequent trypsin addition for 10 mins by 5 (6)-carboxy-fluorescein based flow cytometric analysis; type: ADME, cell-based; details: mcf7, 10 min

N=C(N)NCCC[C@H](NC(=O)[C@H](CCCNC(=N)N)NC(=O)[C@H](CCCNC(=N)N)NC(=O)[C@H](CCCNC(=N)N)NC(=O)[C@H](CCCNC(=N)N)NC(=O)[C@H](CCCNC(=N)N)NC(=O)[C@H](CCCNC(=N)N)NC(=O)[C@@H](N)CCCNC(=N)N)C(=O)O
Drug uptake [1]: Active | IC50 [2]: > 100 µM | IC50 [3]: 100 µM | Flu intensity [4]: 975 | Flu intensity [5]: < 8669 | Flu intensity [6]: < 52928

CN(Cc1cnc2nc(N)nc(N)c2n1)c1ccc(C(=O)N[C@@H](CCC(=O)O)C(=O)N[C@@H](CCCNC(=N)N)C(=O)N[C@@H](CCCNC(=N)N)C(=O)N[C@@H](CCCNC(=N)N)C(=O)N[C@@H](CCCNC(=N)N)C(=O)N[C@@H](CCCNC(=N)N)C(=O)N[C@@H](CCCNC(=N)N)C(=O)N[C@@H](CCCNC(=N)N)C(=O)N[C@@H](CCCNC(=N)N)C(=O)O)cc1
IC50 [2]: 100 µM | IC50 [3]: > 100 µM

CC[C@H](C)[C@H](NC(=O)[C@H](CCCCN)NC(=O)[C@@H](NC(=O)[C@H](CCC(N)=O)NC(=O)[C@H](CCCNC(=N)N)NC(=O)CNC(=O)[C@H](CC(C)C)NC(=O)[C@H](Cc1ccccc1)NC(=O)CNC(=O)[C@H](CCC(=O)O)NC(=O)[C@H](CCC(=O)O)NC(=O)[C@H](CCC(=O)O)NC(=O)[C@H](CCC(=O)O)NC(=O)[C@H](CCC(=O)O)NC(=O)[C@H](CCC(=O)O)NC(=O)c1ccc(N(C)Cc2cnc3nc(N)nc(N)c3n2)cc1)[C@@H](C)CC)C(=O)N[C@@H](Cc1c[nH]c2ccccc12)C(=O)N[C@@H](Cc1ccccc1)C(=O)N[C@@H](CCC(N)=O)C(=O)N[C@@H](CC(N)=O)C(=O)N[C@@H](CCCNC(=N)N)C(=O)N[C@@H](CCCNC(=N)N)C(=O)N[C@@H](CCCCN)C(=O)N[C@@H](Cc1c[nH]c2ccccc12)C(=O)N[C@@H](CCCCN)C(=O)N[C@@H](CCCCN)C(=O)O ({DAMPA}-EEEEEEGFLGRQIKIWFQNRRKWKK-OH)
Drug uptake [1]: Active | IC50 [2]: 0.4 µM | IC50 [3]: 0.3 µM | Drug uptake [7]: Active

CC(C)C[C@H](NC(=O)[C@H](Cc1ccccc1)NC(=O)CNC(=O)[C@H](CCC(=O)O)NC(=O)[C@H](CCC(=O)O)NC(=O)[C@H](CCC(=O)O)NC(=O)[C@H](CCC(=O)O)NC(=O)[C@H](CCC(=O)O)NC(=O)[C@H](CCC(=O)O)NC(=O)c1ccc(N(C)Cc2cnc3nc(N)nc(N)c3n2)cc1)C(=O)NCC(=O)N[C@@H](CCCNC(=N)N)C(=O)N[C@@H](CCCNC(=N)N)C(=O)N[C@@H](CCCNC(=N)N)C(=O)N[C@@H](CCCNC(=N)N)C(=O)N[C@@H](CCCNC(=N)N)C(=O)N[C@@H](CCCNC(=N)N)C(=O)N[C@@H](CCCNC(=N)N)C(=O)N[C@@H](CCCNC(=N)N)C(=O)O ({DAMPA}-EEEEEEGFLGRRRRRRRR-OH)
IC50 [2]: 100 µM | IC50 [3]: > 100 µM

CC[C@H](C)[C@H](NC(=O)[C@H](CCCCN)NC(=O)[C@@H](NC(=O)[C@H](CCC(N)=O)NC(=O)[C@H](CCCNC(=N)N)NC(=O)[C@H](CCC(=O)O)NC(=O)[C@H](CCC(=O)O)NC(=O)[C@H](CCC(=O)O)NC(=O)[C@H](CCC(=O)O)NC(=O)[C@H](CCC(=O)O)NC(=O)[C@H](CCC(=O)O)NC(=O)c1ccc(N(C)Cc2cnc3nc(N)nc(N)c3n2)cc1)[C@@H](C)CC)C(=O)N[C@@H](Cc1c[nH]c2ccccc12)C(=O)N[C@@H](Cc1ccccc1)C(=O)N[C@@H](CCC(N)=O)C(=O)N[C@@H](CC(N)=O)C(=O)N[C@@H](CCCNC(=N)N)C(=O)N[C@@H](CCCNC(=N)N)C(=O)N[C@@H](CCCCN)C(=O)N[C@@H](Cc1c[nH]c2ccccc12)C(=O)N[C@@H](CCCCN)C(=O)N[C@@H](CCCCN)C(=O)O ({DAMPA}-EEEEEERQIKIWFQNRRKWKK-OH)
Drug uptake [1]: Active | IC50 [2]: 0.1 µM | IC50 [3]: > 100 µM | Drug uptake [7]: Active

CN(Cc1cnc2nc(N)nc(N)c2n1)c1ccc(C(=O)N[C@@H](CCC(=O)O)C(=O)N[C@@H](CCC(=O)O)C(=O)N[C@@H](CCC(=O)O)C(=O)N[C@@H](CCC(=O)O)C(=O)N[C@@H](CCC(=O)O)C(=O)N[C@@H](CCC(=O)O)C(=O)N[C@@H](CCCNC(=N)N)C(=O)N[C@@H](CCCNC(=N)N)C(=O)N[C@@H](CCCNC(=N)N)C(=O)N[C@@H](CCCNC(=N)N)C(=O)N[C@@H](CCCNC(=N)N)C(=O)N[C@@H](CCCNC(=N)N)C(=O)N[C@@H](CCCNC(=N)N)C(=O)N[C@@H](CCCNC(=N)N)C(=O)O)cc1 ({DAMPA}-EEEEEERRRRRRRR-OH)
Drug uptake [1]: Active | IC50 [2]: > 100 µM | IC50 [3]: > 100 µM | Drug uptake [7]: Active

CC[C@H](C)[C@H](NC(=O)[C@H](CCCCN)NC(=O)[C@@H](NC(=O)[C@H](CCC(N)=O)NC(=O)[C@H](CCCNC(=N)N)NC(=O)CNC(=O)[C@H](CC(C)C)NC(=O)[C@H](Cc1ccccc1)NC(=O)CNC(=O)[C@H](CCC(=O)O)NC(=O)c1ccc(N(C)Cc2cnc3nc(N)nc(N)c3n2)cc1)[C@@H](C)CC)C(=O)N[C@@H](Cc1c[nH]c2ccccc12)C(=O)N[C@@H](Cc1ccccc1)C(=O)N[C@@H](CCC(N)=O)C(=O)N[C@@H](CC(N)=O)C(=O)N[C@@H](CCCNC(=N)N)C(=O)N[C@@H](CCCNC(=N)N)C(=O)N[C@@H](CCCCN)C(=O)N[C@@H](Cc1c[nH]c2ccccc12)C(=O)N[C@@H](CCCCN)C(=O)N[C@@H](CCCCN)C(=O)O ({DAMPA}-EGFLGRQIKIWFQNRRKWKK-OH)
Drug uptake [1]: Active | IC50 [2]: 5.5 µM | IC50 [3]: 13.9 µM | Drug uptake [7]: Active

CC(C)C[C@H](NC(=O)[C@H](Cc1ccccc1)NC(=O)CNC(=O)[C@H](CCC(=O)O)NC(=O)c1ccc(N(C)Cc2cnc3nc(N)nc(N)c3n2)cc1)C(=O)NCC(=O)N[C@@H](CCCNC(=N)N)C(=O)N[C@@H](CCCNC(=N)N)C(=O)N[C@@H](CCCNC(=N)N)C(=O)N[C@@H](CCCNC(=N)N)C(=O)N[C@@H](CCCNC(=N)N)C(=O)N[C@@H](CCCNC(=N)N)C(=O)N[C@@H](CCCNC(=N)N)C(=O)N[C@@H](CCCNC(=N)N)C(=O)O ({DAMPA}-EGFLGRRRRRRRR-OH)
IC50 [2]: 19.1 µM | IC50 [3]: 31.3 µM

CC[C@H](C)[C@H](NC(=O)[C@H](CCCCN)NC(=O)[C@@H](NC(=O)[C@H](CCC(N)=O)NC(=O)[C@H](CCCNC(=N)N)NC(=O)[C@H](CCC(=O)O)NC(=O)c1ccc(N(C)Cc2cnc3nc(N)nc(N)c3n2)cc1)[C@@H](C)CC)C(=O)N[C@@H](Cc1c[nH]c2ccccc12)C(=O)N[C@@H](Cc1ccccc1)C(=O)N[C@@H](CCC(N)=O)C(=O)N[C@@H](CC(N)=O)C(=O)N[C@@H](CCCNC(=N)N)C(=O)N[C@@H](CCCNC(=N)N)C(=O)N[C@@H](CCCCN)C(=O)N[C@@H](Cc1c[nH]c2ccccc12)C(=O)N[C@@H](CCCCN)C(=O)N[C@@H](CCCCN)C(=O)O ({DAMPA}-ERQIKIWFQNRRKWKK-OH)
IC50 [2]: 12.9 µM | IC50 [3]: 40.2 µM

CN(Cc1cnc2nc(N)nc(N)c2n1)c1ccc(C(=O)N[C@@H](CCC(=O)O)C(=O)O)cc1 [METHOTREXATE]
IC50 [2]: > 100 µM | IC50 [3]: 0.8 µM
